Experimental data published in patent publication EP0815072B1, “RADIOGRAPHIC CONTRASTING AGENT FOR COMPUTERISED TOMOGRAPHY AND UROGRAPHY” (SCHERING AKTIENGESELLSCHAFT, priority 1995, dated 1996).

Legend:
[1] = system: Ratten; test: Lethal dose after intravenous injection in rats; type: in vivo; conditions: i.v., Ratten (90-110 g), 300 mg Jod/ml, 2 ml/min
From the text: (§1) Die Hydrophilie wird als eine wichtige Voraussetzung für eine Verminderung der bei intravenöser Injektion beobachteten nicht osmolalitätsbedingten Nebenwirkungen angesehen (Dawson P., Clauß W.: Contrast Media in Practice, Springer Verlag Berlin Heidelberg 1993, Seite 11-12). Dazu gehören vor allem Übelkeit und Erbrechen, sowie allergieartige Reaktionen bis hin zum schweren anaphylaktoiden Schock. Andere Testergebnisse, die eine besonders gute Allgemeinverträglichkeit anzeigen, werden in biochemischen, biologischen und toxikologischen (Tab. 2) Untersuchungen gewonnen.

[2] = Lethal dose after intravenous injection in rats; type: in vivo, Ratten; conditions: rat, in vivo, iv; all three doses pooled, i.v., Ratten; read-out: gestorbene Tiere, alle Dosierungen (%)
From the text: as §1

[3] = Butanol/water (buffer pH 7) partition coefficient; type: physicochemical; conditions: for Verteilungskoeffizient: Butanol/Wasser (Puffer pH 7), n = 4, Mittelwert ± Standardabweichung
From the text: Während Osmolalität, Viskosität und Jodgehalt den strukturisomeren Verbindungen lopamidol und lomeprol sehr ähnlich sind, zeigt sich eine überraschend erhöhte Hydrophilie der erfindungsgemäßen Verbindungen (Tab. 1). Tab.1:
Die Hydrophilie wird nicht wie bei der mit lohexol bezeichneten Verbindung durch die Einführung einer zusätzlichen Hydroxyalkylfunktion erreicht (die den Jodgehalt vermindert und Viskosität und Osmolalität erhöht), sondern ist die überraschende Folge einer neuen sterischen Anordnung der Substituenten an dem jodierten Aromaten.

SMILES | Zahl der gestorbenen Tiere / Gesamtzahl der Tiere ([1]; Dosis 1: 12 g J/kg) | Zahl der gestorbenen Tiere / Gesamtzahl der Tiere ([1]; Dosis 2: 15 g J/kg) | Zahl der gestorbenen Tiere / Gesamtzahl der Tiere ([1]; Dosis 3: 18 g J/kg) | mortality [2] | Verteilungskoeffizient [3] | Hydrophilie ([3]; comparison with structurally comparable compounds, from the partition coefficient)
CN(CC(O)CO)C(=O)c1c(I)c(NC(=O)CO)c(I)c(C(=O)NCC(O)CO)c1I (stereo not shown) [Beispiel 1, 5-Hydroxyacetylamino-2,4,6-triiod-isophthalsäure-[(2,3-dihydroxy-N-methyl-propyl)-(2,3-dihydroxypropyl)]-diamid] | 0/4 | 2/4 | 2/4 | 33% | 0.069 ± 0.011 | am stärksten hydrophil
CC(=O)N(CC(O)CO)c1c(I)c(C(=O)NCC(O)CO)c(I)c(C(=O)NCC(O)CO)c1I (stereo not shown) [lohexol] | – | – | – | – | 0.082 ± 0.005 | –
CN(C(=O)CO)c1c(I)c(C(=O)NCC(O)CO)c(I)c(C(=O)NCC(O)CO)c1I (stereo not shown) [lomeprol] | 2/3 | 3/3 | 3/3 | 89% | 0.105 ± 0.006 | –
C[C@H](O)C(=O)Nc1c(I)c(C(=O)NC(CO)CO)c(I)c(C(=O)NC(CO)CO)c1I [lopamidol] | 2/4 | 1/4 | 4/4 | 58% | 0.089 ± 0.014 | –
COCC(=O)Nc1c(I)c(C(=O)NCC(O)CO)c(I)c(C(=O)N(C)CC(O)CO)c1I (stereo not shown) [lopromid] | 1/4 | 3/4 | 4/4 | 67% | 0.149 ± 0.011 | –
